Measured values as given in the NIST ThermoML archive (doi:10.1021/je700671t).

Assay: xn = mol fraction of the nth substance listed
Settings: 101 kPa, Liquid; for viscosity: Capillary tube (Ostwald / Ubbelohde) method

CN(C)C=O [dimethylformamide] + O
Settings | mass density [kg/m3] | viscosity [mPa·s]
283.15 K, x1 = 0.02 | 1000.31 | –
283.15 K, x1 = 0.04 | 1001.42 | –
283.15 K, x1 = 0.06 | 1002.8 | –
283.15 K, x1 = 0.08 | 1004.13 | –
283.15 K, x1 = 0.1 | 1005.32 | –
283.15 K, x1 = 0.2 | 1007.64 | –
283.15 K, x1 = 0.3 | 1004.4 | –
283.15 K, x1 = 0.398 | 997.83 | –
283.15 K, x1 = 0.498 | 990.56 | –
283.15 K, x1 = 0.599 | 983.02 | –
283.15 K, x1 = 0.697 | 976.07 | –
283.15 K, x1 = 0.798 | 969.84 | –
283.15 K, x1 = 1 | 958.96 | –
288.15 K, x1 = 0.02 | 999.23 | –
288.15 K, x1 = 0.04 | 999.91 | –
288.15 K, x1 = 0.06 | 1000.87 | –
288.15 K, x1 = 0.08 | 1001.82 | –
288.15 K, x1 = 0.1 | 1002.67 | –
288.15 K, x1 = 0.2 | 1003.86 | –
288.15 K, x1 = 0.3 | 1000.1 | –
288.15 K, x1 = 0.398 | 993.31 | –
288.15 K, x1 = 0.498 | 985.94 | –
288.15 K, x1 = 0.599 | 978.36 | –
288.15 K, x1 = 0.697 | 971.37 | –
288.15 K, x1 = 0.798 | 965.11 | –
288.15 K, x1 = 1 | 954.17 | –
293.15 K, x1 = 0.02 | 997.92 | 1.234
293.15 K, x1 = 0.04 | 998.2 | 1.442
293.15 K, x1 = 0.06 | 998.77 | 1.656
293.15 K, x1 = 0.08 | 999.37 | 1.847
293.15 K, x1 = 0.1 | 999.9 | 2.062
293.15 K, x1 = 0.2 | 1000.01 | 2.782
293.15 K, x1 = 0.3 | 995.76 | 2.954
293.15 K, x1 = 0.398 | 988.76 | 2.622
293.15 K, x1 = 0.498 | 981.3 | 2.162
293.15 K, x1 = 0.599 | 973.67 | 1.713
293.15 K, x1 = 0.697 | 966.65 | 1.377
293.15 K, x1 = 0.798 | 960.37 | 1.153
293.15 K, x1 = 1 | 949.39 | 0.864
298.15 K, x1 = 0.02 | 996.39 | –
298.15 K, x1 = 0.04 | 996.31 | –
298.15 K, x1 = 0.06 | 996.53 | –
298.15 K, x1 = 0.08 | 996.8 | –
298.15 K, x1 = 0.1 | 997.03 | –
298.15 K, x1 = 0.2 | 996.13 | –
298.15 K, x1 = 0.3 | 991.4 | –
298.15 K, x1 = 0.398 | 984.18 | –
298.15 K, x1 = 0.498 | 976.64 | –
298.15 K, x1 = 0.599 | 968.96 | –
298.15 K, x1 = 0.697 | 961.92 | –
298.15 K, x1 = 0.798 | 955.63 | –
298.15 K, x1 = 1 | 944.6 | –
303.15 K, x1 = 0.02 | 994.67 | 0.97
303.15 K, x1 = 0.04 | 994.25 | 1.114
303.15 K, x1 = 0.06 | 994.14 | 1.269
303.15 K, x1 = 0.08 | 994.11 | 1.407
303.15 K, x1 = 0.1 | 994.05 | 1.55
303.15 K, x1 = 0.2 | 992.19 | 2.051
303.15 K, x1 = 0.3 | 986.99 | 2.179
303.15 K, x1 = 0.398 | 979.57 | 1.979
303.15 K, x1 = 0.498 | 971.95 | 1.675
303.15 K, x1 = 0.599 | 964.24 | 1.382
303.15 K, x1 = 0.697 | 957.18 | 1.149
303.15 K, x1 = 0.798 | 950.87 | 0.985
303.15 K, x1 = 1 | 939.83 | 0.766
308.15 K, x1 = 0.02 | 992.74 | –
308.15 K, x1 = 0.04 | 992.03 | –
308.15 K, x1 = 0.06 | 991.61 | –
308.15 K, x1 = 0.08 | 991.29 | –
308.15 K, x1 = 0.1 | 990.98 | –
308.15 K, x1 = 0.2 | 988.2 | –
308.15 K, x1 = 0.3 | 982.55 | –
308.15 K, x1 = 0.398 | 974.94 | –
308.15 K, x1 = 0.498 | 967.24 | –
308.15 K, x1 = 0.599 | 959.49 | –
308.15 K, x1 = 0.697 | 952.42 | –
308.15 K, x1 = 0.798 | 946.1 | –
308.15 K, x1 = 1 | 935.05 | –
313.15 K, x1 = 0.02 | 990.67 | 0.783
313.15 K, x1 = 0.04 | 989.66 | 0.891
313.15 K, x1 = 0.06 | 988.95 | 1.003
313.15 K, x1 = 0.08 | 988.37 | 1.103
313.15 K, x1 = 0.1 | 987.8 | 1.208
313.15 K, x1 = 0.2 | 984.15 | 1.564
313.15 K, x1 = 0.3 | 978.07 | 1.66
313.15 K, x1 = 0.398 | 970.26 | 1.538
313.15 K, x1 = 0.498 | 962.5 | 1.337
313.15 K, x1 = 0.599 | 954.73 | 1.14
313.15 K, x1 = 0.697 | 947.64 | 0.971
313.15 K, x1 = 0.798 | 941.33 | 0.847
313.15 K, x1 = 1 | 930.27 | 0.684
318.15 K, x1 = 0.02 | 988.43 | –
318.15 K, x1 = 0.04 | 987.14 | –
318.15 K, x1 = 0.06 | 986.17 | –
318.15 K, x1 = 0.08 | 985.33 | –
318.15 K, x1 = 0.1 | 984.53 | –
318.15 K, x1 = 0.2 | 980.05 | –
318.15 K, x1 = 0.3 | 973.55 | –
318.15 K, x1 = 0.398 | 965.56 | –
318.15 K, x1 = 0.498 | 957.73 | –
318.15 K, x1 = 0.599 | 949.93 | –
318.15 K, x1 = 0.697 | 942.85 | –
318.15 K, x1 = 0.798 | 936.53 | –
318.15 K, x1 = 1 | 925.49 | –
323.15 K, x1 = 0.02 | 986 | 0.648
323.15 K, x1 = 0.04 | 984.49 | 0.729
323.15 K, x1 = 0.06 | 983.26 | 0.812
323.15 K, x1 = 0.08 | 982.19 | 0.892
323.15 K, x1 = 0.1 | 981.17 | 0.965
323.15 K, x1 = 0.2 | 975.89 | 1.228
323.15 K, x1 = 0.3 | 968.99 | 1.3
323.15 K, x1 = 0.398 | 960.81 | 1.228
323.15 K, x1 = 0.498 | 952.92 | 1.087
323.15 K, x1 = 0.599 | 945.11 | 0.961
323.15 K, x1 = 0.697 | 938.03 | 0.831
323.15 K, x1 = 0.798 | 931.73 | 0.74
323.15 K, x1 = 1 | 920.71 | 0.617
328.15 K, x1 = 0.02 | 983.51 | –
328.15 K, x1 = 0.04 | 981.71 | –
328.15 K, x1 = 0.06 | 980.24 | –
328.15 K, x1 = 0.08 | 978.94 | –
328.15 K, x1 = 0.1 | 977.71 | –
328.15 K, x1 = 0.2 | 971.68 | –
328.15 K, x1 = 0.3 | 964.38 | –
328.15 K, x1 = 0.398 | 956.04 | –
328.15 K, x1 = 0.498 | 948.09 | –
328.15 K, x1 = 0.599 | 940.27 | –
328.15 K, x1 = 0.697 | 933.2 | –
328.15 K, x1 = 0.798 | 926.91 | –
328.15 K, x1 = 1 | 915.92 | –
333.15 K, x1 = 0.02 | 980.84 | 0.548
333.15 K, x1 = 0.04 | 978.81 | 0.613
333.15 K, x1 = 0.06 | 977.1 | 0.675
333.15 K, x1 = 0.08 | 975.59 | 0.736
333.15 K, x1 = 0.1 | 974.16 | 0.792
333.15 K, x1 = 0.2 | 967.4 | 0.992
333.15 K, x1 = 0.3 | 959.73 | 1.046
333.15 K, x1 = 0.398 | 951.22 | 1.001
333.15 K, x1 = 0.498 | 943.22 | 0.905
333.15 K, x1 = 0.599 | 935.4 | 0.81
333.15 K, x1 = 0.697 | 928.34 | 0.722
333.15 K, x1 = 0.798 | 922.08 | 0.654
333.15 K, x1 = 1 | 911.13 | 0.559
338.15 K, x1 = 0.02 | 978.04 | –
338.15 K, x1 = 0.04 | 975.81 | –
338.15 K, x1 = 0.06 | 973.86 | –
338.15 K, x1 = 0.08 | 972.14 | –
338.15 K, x1 = 0.1 | 970.51 | –
338.15 K, x1 = 0.2 | 963.07 | –
338.15 K, x1 = 0.3 | 955.03 | –
338.15 K, x1 = 0.398 | 946.36 | –
338.15 K, x1 = 0.498 | 938.32 | –
338.15 K, x1 = 0.599 | 930.49 | –
338.15 K, x1 = 0.697 | 923.46 | –
338.15 K, x1 = 0.798 | 917.22 | –
338.15 K, x1 = 1 | 906.32 | –
343.15 K, x1 = 0.02 | 975.12 | 0.474
343.15 K, x1 = 0.04 | 972.66 | 0.526
343.15 K, x1 = 0.06 | 970.5 | 0.575
343.15 K, x1 = 0.08 | 968.59 | 0.624
343.15 K, x1 = 0.1 | 966.78 | 0.666
343.15 K, x1 = 0.2 | 958.67 | 0.821
343.15 K, x1 = 0.3 | 950.29 | 0.866
343.15 K, x1 = 0.398 | 941.46 | 0.837
343.15 K, x1 = 0.498 | 933.38 | 0.764
343.15 K, x1 = 0.599 | 925.56 | 0.701
343.15 K, x1 = 0.697 | 918.55 | 0.636
343.15 K, x1 = 0.798 | 912.34 | 0.583
343.15 K, x1 = 1 | 901.51 | 0.51
348.15 K, x1 = 0.02 | 972.14 | –
348.15 K, x1 = 0.04 | 969.42 | –
348.15 K, x1 = 0.06 | 967.1 | –
348.15 K, x1 = 0.08 | 964.94 | –
348.15 K, x1 = 0.1 | 962.96 | –
348.15 K, x1 = 0.2 | 954.21 | –
348.15 K, x1 = 0.3 | 945.49 | –
348.15 K, x1 = 0.398 | 936.52 | –
348.15 K, x1 = 0.498 | 928.4 | –
348.15 K, x1 = 0.599 | 920.59 | –
348.15 K, x1 = 0.697 | 913.61 | –
348.15 K, x1 = 0.798 | 907.45 | –
348.15 K, x1 = 1 | 896.69 | –
353.15 K, x1 = 0.02 | 968.96 | 0.417
353.15 K, x1 = 0.04 | 966.06 | 0.459
353.15 K, x1 = 0.06 | 963.53 | 0.499
353.15 K, x1 = 0.08 | 961.2 | 0.539
353.15 K, x1 = 0.1 | 959.05 | 0.572
353.15 K, x1 = 0.2 | 949.69 | 0.694
353.15 K, x1 = 0.3 | 940.64 | 0.727
353.15 K, x1 = 0.398 | 931.54 | 0.707
353.15 K, x1 = 0.498 | 923.39 | 0.659
353.15 K, x1 = 0.599 | 915.59 | 0.614
353.15 K, x1 = 0.697 | 908.64 | 0.563
353.15 K, x1 = 0.798 | 902.52 | 0.525
353.15 K, x1 = 1 | 891.86 | 0.47
